Reference: patent US9102636B2, “Analgesic compounds, compositions, and uses thereof” (Galleon Pharmaceuticals, Inc., priority 2010, dated 2015)
Several values for one entry are separate records, joined by “and”; a condition that tells them apart may be missing. Equal entries are not always repeated. Entries after “also recorded” stand apart in the source; their conditions may differ.

Tests used:
[1] = system: hyperalgesia caused by SIN-1; experiment: Hyperalgesia caused by SIN-1; format: in vivo; conditions: rat; IV 15 minutes before first SIN-1 (1 mg/kg); FIG. 11
Procedure: Vehicle or compound 2 was given IV 15 minutes before the first administration of SIN-1 (1 mg/kg).

[2] = system: FCA induced thermal hyperalgesia; experiment: FCA induced thermal hyperalgesia (Hargreaves); format: in vivo, rat; conditions: for Paw withdrawal latency: individual rats, FIG. 18A
Procedure: Compound 2 was evaluated in the rat Freund's complete adjuvant (FCA) model of inflammatory pain. The rat Freund's complete adjuvant (FCA) intraplantar model of inflammatory pain produces behaviors similar to those observed in patients and has been widely used to assess novel pharmacological treatments (Lam et al., 2008, J Ethnopharmacol. 120:44-50). The positive control was celecoxib (TRC, Montreal), and the negative control was vehicle (0.5% methyl cellulose, in phosphate buffered saline). […] The Hargreaves apparatus was obtained from Ugo Basile, Italy. The Freund's complete adjuvant was obtained from Sigma, St. Louis, and the electronic von frey was obtained from Stoelting, Ill. For this assay, paw withdrawal latency to a thermal stimulus was assessed using a radiant heat source (Ugo Basile, Italy) aimed at the plantar surface of the left hind paw (Hargreaves test; […] Paw withdrawal thresholds to a non-noxious tactile stimulus was assessed using an electronic von Frey apparatus that presented an increasing mechanical force to the plantar surface of the hind paw. Paw volume was measured by displacement of water and assuming a tissue density equal to that of water. […] Celecoxib (30 mg/kg p.o.) served as the positive control. […] After induction of anesthesia, the injection site was prepared in a sterile manner and 100 μl of a 50% suspension of FCA injected. After injection, animals were weighed and allowed to recover before being returned to their home cages. Statistical significance was determined on untransformed data using a two-way analysis of variance (Graphpad Prism, NC). Significant main effects were analyzed further by subsequent Bonferronni post-hoc test. The level of significance was set at p<0.05. Data are shown as mean±S.E.M. (with an asterisk to denote significance as compared to vehicle treated controls).

[3] = system: Carrageenan-induced thermal hyperalgesia; experiment: Carrageenan-induced thermal hyperalgesia (Hargreaves); format: in vivo, rat; conditions: for Paw withdrawal latency: Pre-Cg, individual rats, FIG. 21A
Procedure: (§1) The effect of Compound 2 in the rat carrageenan model of acute inflammatory pain was evaluated. The intraplantar carrageenan model of acute inflammatory pain in the rat results in behaviors similar to that observed in patients and has been widely used to assess novel pharmacological treatments (Whiteside et al., 2005, J. Pharmacol. Exp. Ther. 314:1234-1240). The objective of this study was to evaluate the ability of Compound 2 to reverse or prevent development of thermal hyperalgesia and edema in the rat carrageenan model of acute inflammatory pain. The positive control was indomethacin (Sigma, St. Louis), and the negative control was vehicle (0.5% methyl cellulose). […] The Hargreaves apparatus was obtained from Ugo Basile, Italy, and the lamba-carrageenan was obtained from Sigma, St. Louis. For this assay, paw withdrawal latency to a thermal stimulus was assessed using a radiant heat source (Ugo Basile, Italy) aimed at the plantar surface of the left hind paw (Hargreaves test). […] Paw volume was measured by displacement of water and assuming a tissue density equal to that of water. Baseline latencies were taken prior to carrageenan administration and re-assessed 4 h later. Compound 2 or vehicle was administered (10 and 30 mg/kg, p.o.) 3 hrs after carrageenan (curative) and behavior assessed 1 hr later. […] Indomethacin (positive control, 30 mg/kg p.o.) was administered prior to carrageenan and behavior assessed 4 hrs post-carrageenan. […] After induction of anesthesia, the injection site was prepared in a sterile manner and 50 μl of a 2% Jamba-carrageenan was injected. After injection, animals were weighed and allowed to recover before being returned to their home cages. Statistical significance was determined on untransformed data using a two-way analysis of variance (Graphpad Prism, NC). Significant main effects were analyzed further by subsequent Bonferronni post-hoc test. The level of significance was set at p<0.05. Data are shown as mean±S.E.M. (with an asterisk to denote significance as compared to vehicle treated controls).

[4] = system: Carrageenan-induced edema; experiment: Carrageenan-induced edema (paw volume); format: in vivo, rat
Procedure: as §1, with “later.” for “later. Compound 2 or vehicle was administered (10 and 30 mg/kg, p.o.) 3 hrs after carrageenan (curative) and behavior assessed 1 hr later.”

Structure (SMILES): CC1(C)SC(Nc2ccccc2O)=N[C@@H]1C(=O)O [Compound 2, (R)-2-(2-hydroxyphenylamino)-thiazoline-5,5-dimethyl-4-carboxylic acid]
- hyperalgesia caused by SIN-1 [1]: inhibits hyperalgesia caused by SIN-1
- Paw withdrawal latency ([2]; baseline (prior to FCA)): 16.6 s and 17.55 s and 20.74 s and 20.9 s and 20.6 s and 19.33 s
- Paw withdrawal latency ([2]; day 1, compound 2 25 mg/kg i.v. preemptive, 25 mg/kg): 14.4 s and 156.3 s and 15.1 s (2×) and 15.7 s and 22.7 s
- Paw withdrawal latency ([2]; day 3, compound 2 25 mg/kg i.v. preemptive, 25 mg/kg): 12.5 s and 19.12 s and 19.5 s (2×) and 15.7 s and 17.7 s
- Paw withdrawal latency ([2]; day 4, compound 2 25 mg/kg i.v. preemptive, 25 mg/kg): 14 s and 16.25 s and 16.51 s (2×) and 16.6 s and 18.2 s
- FCA thermal hyperalgesia (finding in words) ([2]; rat, single dose 25 mg/kg i.v. preemptive, significant 72 hours post-FCA, 25 mg/kg): prevented the development; also recorded: significantly prevented
- Paw withdrawal latency ([3]; compound 2 10 mg/kg group, 10 mg/kg): 19.8 s and 15.34 s and 22.07 s and 17.39 s and 31.03 s and 14.07 s
- Paw withdrawal latency ([3]; compound 2 30 mg/kg group, 30 mg/kg): 23.87 s and 12.41 s and 16.08 s and 28.86 s and 18.1 s and 22.77 s and 17.58 s
- carrageenan-induced thermal hyperalgesia, curative (finding in words) ([3]; rat, 10 and 30 mg/kg p.o. 3 hours post-carrageenan): without significantly reversing thermal hyperalgesia; also recorded: did not significantly reverse thermal hyperalgesia
- Paw volume ([4]; 1 hr post-drug, compound 2 10 mg/kg p.o. 3 hrs after carrageenan (curative), FIG. 21B, 10 mg/kg): 2.6 mL and 2.9 mL and 2.5 mL and 2.7 mL
- Paw volume ([4]; 1 hr post-drug, compound 2 30 mg/kg p.o. 3 hrs after carrageenan (curative), FIG. 21B, 30 mg/kg): 2.4 mL and 2.6 mL and 2.5 mL and 2.9 mL and 2.3 mL
- Paw volume ([4]; Pre-Cg, compound 2 10 mg/kg group, individual rats, FIG. 21B, 10 mg/kg): 1.7 mL (2×) and 1.8 mL (3×) and 1.6 mL
- Paw volume ([4]; Pre-Cg, compound 2 30 mg/kg group, individual rats, FIG. 21B, 30 mg/kg): 1.6 mL (3×) and 1.7 mL (2×) and 1.8 mL and 1.5 mL
- Paw volume ([4]; compound 2 10 mg/kg p.o. preemptive, 4 hr post-drug, individual animals, 10 mg/kg): 3.3 mL and 2.8 mL (2×) and 3.2 mL and 3.1 mL and 2.9 mL
- Paw volume ([4]; compound 2 10 mg/kg p.o. preemptive, Pre-Cg, individual animals, 10 mg/kg): 1.7 mL (2×) and 1.6 mL (3×) and 1.5 mL
- Paw volume ([4]; compound 2 30 mg/kg p.o. preemptive, 4 hr post-drug, individual animals, 30 mg/kg): 2.9 mL and 2.7 mL (4×) and 2.8 mL
- Paw volume ([4]; compound 2 30 mg/kg p.o. preemptive, Pre-Cg, individual animals, 30 mg/kg): 1.7 mL (3×) and 1.6 mL (2×) and 1.8 mL
- carrageenan-induced edema, preemptive (finding in words) ([4]; rat, 10 and 30 mg/kg p.o. 15 minutes prior to carrageenan): did not significantly prevent
- carrageenan-induced edema, curative (finding in words) ([4]; rat, p.o. 3 hours post-carrageenan, significant at 30 mg/kg, 30 mg/kg): significantly reversed edema
